One test addresses PLCG1-N SH2 domain (Homo sapiens, UniProt P19174). Kind of test: FP saturation binding assay.
A further test addresses PIK3R2-N SH2 domain (Homo sapiens, UniProt O00459). Put plainly: FP saturation binding assay.
A further test deals with T1, PTPN11-N SH2 domain (Homo sapiens, UniProt Q06124).
T1 sequence (Q06124 6-102 limits assumed): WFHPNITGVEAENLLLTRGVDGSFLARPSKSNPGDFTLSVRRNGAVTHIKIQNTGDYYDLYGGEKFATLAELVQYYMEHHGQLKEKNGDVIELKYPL
Put plainly: FP saturation binding assay.

The target in a further test is SH2D2A SH2 domain (Homo sapiens, UniProt Q9NP31). Kind of test: FP saturation binding assay.
A further test concerns the target LCP2 SH2 domain (Homo sapiens, UniProt Q13094). Kind of test: FP saturation binding assay.
Another test deals with T2, FGR SH2 domain (Homo sapiens, UniProt P09769).
T2 construct: 93 SH2 and 2 PTB domain-containing constructs; 6X His; thioredoxin; made in house; host or cells: E. coli BL21(DE3)pLysS
Put plainly: FP saturation binding assay. The settings on record: Protein FGR, high-confidence ErbB interactions, mean over replicate hits. In a few lines: (§1)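 KD values come from least-squares fits of fluorescence polarization (ex 530, em 555 nm), corrected for thioredoxin nonspecific binding and plate baseline, with outliers pruned. Fixed 10 nM labeled peptide met a 0.002–10 µM protein series for 20 min at room temperature in HEPES/KCl/Tween/DTT buffer, pH 7.8.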

The next test has as its target NCK2 SH2 domain (Homo sapiens, UniProt O43639). Kind of test: FP saturation binding assay.
For the next test, the target named is T3, HCK SH2 domain (Homo sapiens, UniProt P08631).
T3 construct: 93 SH2 and 2 PTB domain-containing constructs; 6X His; thioredoxin; made in house; host or cells: E. coli BL21(DE3)pLysS
Kind of test: FP saturation binding assay. The conditions noted are these: protein HCK, high-confidence ErbB interactions, mean of replicate hits. The essentials:
as §1

For the next test, the target named is T4, PIK3R1-C SH2 domain (Homo sapiens, UniProt P27986).
T4 construct: 6X His; thioredoxin; made in house; host or cells: E. coli BL21(DE3)pLysS
Kind of test: FP saturation binding assay. The settings on record: protein PIK3R1-C, high-confidence ErbB interactions, mean of replicate hits. The essentials:
as §1

The target in test [1] is SYK-NC tandem SH2 domains (Homo sapiens, UniProt P43405). Kind of test: FP saturation binding assay.
The target of a further test is T5, ABL2 SH2 domain (Homo sapiens, UniProt P42684).
T5 construct: 93 SH2 and 2 PTB domain-containing constructs; 6X His; thioredoxin; made in house; host or cells: E. coli BL21(DE3)pLysS
Put plainly: FP saturation binding assay. The settings on record: protein ABL2, high-confidence ErbB interactions, mean of replicate hits. In a few lines: as §1

A further test deals with T6, SRC SH2 domain (Homo sapiens, UniProt P12931).
T6 construct: between the c-Src SH2 domain and ErbB1 in our FP assay; 6X His; thioredoxin; made in house; host or cells: E. coli BL21(DE3)pLysS
Put plainly: FP saturation binding assay. The settings on record: protein SRC; high-confidence ErbB interactions; mean of replicate hits. The essentials: as §1

In another test the target is GRB7 SH2 domain (Homo sapiens, UniProt Q14451). Details: 6X His; thioredoxin; made in house; host or cells: E. coli BL21(DE3)pLysS. The settings on record: previous protein microarray data, Figure S5; cited from earlier work.

Residues, ends and D or L forms follow the SMILES beside them.

What is called Kd is the concentration at which binding is half-saturated. Lower therefore signals a tighter complex.

T6 sequence (P12931 151-248 limits assumed): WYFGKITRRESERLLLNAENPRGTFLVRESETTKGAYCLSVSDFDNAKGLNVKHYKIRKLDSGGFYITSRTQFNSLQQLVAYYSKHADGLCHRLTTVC
Chain of LCP2 SH2 domain (Q13094 422-530 limits assumed): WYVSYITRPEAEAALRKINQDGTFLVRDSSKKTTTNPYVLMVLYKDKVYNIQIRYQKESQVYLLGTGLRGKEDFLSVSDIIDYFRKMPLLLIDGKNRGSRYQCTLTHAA
T3 sequence (P08631 144-241 limits assumed): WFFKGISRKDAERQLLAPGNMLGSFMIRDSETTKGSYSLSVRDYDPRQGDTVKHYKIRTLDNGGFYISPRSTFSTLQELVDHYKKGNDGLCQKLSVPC
Chain of NCK2 SH2 domain (O43639 285-380 limits assumed): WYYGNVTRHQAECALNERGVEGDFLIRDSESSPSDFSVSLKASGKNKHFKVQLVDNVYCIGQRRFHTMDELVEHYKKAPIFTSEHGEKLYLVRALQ
Chain of PLCG1-N SH2 domain (P19174 550-657 limits assumed): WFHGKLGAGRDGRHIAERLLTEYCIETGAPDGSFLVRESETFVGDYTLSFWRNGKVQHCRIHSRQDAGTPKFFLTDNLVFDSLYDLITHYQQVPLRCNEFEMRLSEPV
T2 sequence (P09769 144-241 limits assumed): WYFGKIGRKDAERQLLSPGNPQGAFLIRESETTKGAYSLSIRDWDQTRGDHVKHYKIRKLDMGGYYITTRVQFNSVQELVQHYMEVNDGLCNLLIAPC
T4 sequence (P27986 624-718 limits assumed): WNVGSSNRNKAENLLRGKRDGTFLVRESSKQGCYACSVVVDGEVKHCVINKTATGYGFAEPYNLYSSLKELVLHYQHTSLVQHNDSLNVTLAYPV
T5 sequence (P42684 173-263 limits assumed): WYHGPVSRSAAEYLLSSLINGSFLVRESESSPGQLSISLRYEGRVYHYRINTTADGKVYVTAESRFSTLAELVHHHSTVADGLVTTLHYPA
Chain of GRB7 SH2 domain (Q14451 431-527 limits assumed): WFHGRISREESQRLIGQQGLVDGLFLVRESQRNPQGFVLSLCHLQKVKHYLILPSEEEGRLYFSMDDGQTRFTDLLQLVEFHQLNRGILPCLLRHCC
Chain of SH2D2A SH2 domain (Q9NP31 95-186 limits assumed): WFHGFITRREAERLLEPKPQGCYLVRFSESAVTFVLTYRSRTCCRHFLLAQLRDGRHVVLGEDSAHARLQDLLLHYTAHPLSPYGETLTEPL
Chain of PIK3R2-N SH2 domain (O00459 330-425 limits assumed): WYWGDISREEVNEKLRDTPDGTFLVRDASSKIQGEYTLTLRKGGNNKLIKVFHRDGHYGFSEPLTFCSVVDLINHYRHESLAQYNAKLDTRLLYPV

As to `CC(C)[C@H](NC(=O)[C@H](CC(=O)O)NC(=O)[C@@H]1CCCN1C(=O)[C@H](CCC(N)=O)NC(=O)[C@H](CC(N)=O)NC(=O)[C@@H](NC(=O)[C@H](Cc1ccc(OP(=O)(O)O)cc1)NC(=O)[C@H](CCC(=O)O)NC(=O)[C@@H]1CCCN1C(=O)[C@H](CCC(N)=O)NC(=O)[C@@H]1CCCN1)C(C)C)C(=O)N[C@@H](CCCNC(=N)N)C(=O)N[C@@H](CC(=O)O)C(=O)O` [ErbB2 1139 13-mer] (HELM PEPTIDE1{P.Q.P.E.[O=C([C@H](Cc1ccc(OP(=O)(O)O)cc1)N[*:1])[*:2]].V.N.Q.P.D.V.R.D}$$$$V2.0), the Kd on PLCG1-N SH2 domain came out at 11.8 µM; on PIK3R2-N SH2 domain it was 2.2 µM; at PTPN11-N SH2 domain, 8.86 µM; at SH2D2A SH2 domain, 4.8 µM.

As to `CC(C)C[C@H](NC(=O)[C@H](CC(N)=O)NC(=O)[C@@H](N)CC(=O)O)C(=O)N[C@@H](Cc1ccc(O)cc1)C(=O)N[C@@H](Cc1ccc(OP(=O)(O)O)cc1)C(=O)N[C@@H](Cc1c[nH]c2ccccc12)C(=O)N[C@@H](CC(=O)O)C(=O)N[C@@H](CCC(N)=O)C(=O)N[C@@H](CC(=O)O)C(=O)N1CCC[C@H]1C(=O)N1CCC[C@H]1C(=O)N[C@@H](CCC(=O)O)C(=O)N[C@@H](CC(=O)O)C(=O)O` [ErbB2 1222 13-mer] (HELM PEPTIDE1{D.N.L.Y.[O=C([C@H](Cc1ccc(OP(=O)(O)O)cc1)N[*:1])[*:2]].W.D.Q.D.P.P.E.D}$$$$V2.0), the Kd is 11.7 µM on LCP2 SH2 domain and 8.34 µM on FGR SH2 domain.

With `CSCC[C@H](NC(=O)[C@H](Cc1ccc(OP(=O)(O)O)cc1)NC(=O)[C@H](CCC(=O)O)NC(=O)[C@H](Cc1ccc(O)cc1)NC(=O)CNC(=O)[C@@H](N)CC(C)C)C(=O)N[C@@H](CC(=O)O)C(=O)N[C@H](C(=O)NCC(=O)N[C@@H](CO)C(=O)N[C@@H](CC(=O)O)C(=O)N[C@@H](CC(C)C)C(=O)N[C@@H](CC(=O)O)C(=O)O)C(C)C` [ErbB3 1224 13-mer] (HELM PEPTIDE1{L.G.Y.E.[O=C([C@H](Cc1ccc(OP(=O)(O)O)cc1)N[*:1])[*:2]].M.D.V.G.S.D.L.D}$$$$V2.0), the results for the dissociation constant (Kd) on NCK2 SH2 domain, on PTPN11-N SH2 domain and at HCK SH2 domain were 4.6 µM, 4.8 µM and 10.9 µM, respectively.

With `CSCC[C@H](NC(=O)[C@H](CCC(=O)O)NC(=O)[C@H](CCC(=O)O)NC(=O)[C@H](Cc1ccc(OP(=O)(O)O)cc1)NC(=O)CNC(=O)[C@H](CCC(N)=O)NC(=O)[C@H](CCC(=O)O)NC(=O)[C@@H](N)CO)C(=O)N[C@@H](CCCNC(=N)N)C(=O)N[C@@H](C)C(=O)N[C@@H](Cc1ccccc1)C(=O)N[C@@H](CCC(N)=O)C(=O)N[C@@H](CC(=O)O)C(=O)O` [ErbB3 1289 13-mer] (HELM PEPTIDE1{S.E.Q.G.[O=C([C@H](Cc1ccc(OP(=O)(O)O)cc1)N[*:1])[*:2]].E.E.M.R.A.F.Q.D}$$$$V2.0), the Kd at PIK3R1-C SH2 domain worked out at 0.2 µM.

On to `CSCC[C@H](NC(=O)[C@H](Cc1ccc(OP(=O)(O)O)cc1)NC(=O)CNC(=O)[C@H](CCC(=O)O)NC(=O)[C@H](CCC(=O)O)NC(=O)[C@H](CC(=O)O)NC(=O)[C@H](CC(C)C)NC(=O)[C@H](CCC(=O)O)NC(=O)CNC(=O)[C@H](CCCNC(=N)N)NC(=O)[C@@H]1CCCN1)C(=O)N[C@H](C(=O)N1CCC[C@H]1C(=O)N[C@@H](CCSC)C(=O)N[C@@H](CCCNC(=N)N)C(=O)N[C@@H](CC(=O)O)C(=O)N[C@@H](CCCCN)C(=O)N[C@@H](CC(=O)O)C(=O)O)[C@@H](C)O` [ErbB4 1150 18-mer] (HELM PEPTIDE1{P.R.G.E.L.D.E.E.G.[O=C([C@H](Cc1ccc(OP(=O)(O)O)cc1)N[*:1])[*:2]].M.T.P.M.R.D.K.D}$$$$V2.0), for which the Kd in test [1] was found to be 6.19 µM; at ABL2 SH2 domain, 8.25 µM.

Take `CC(C)C[C@H](NC(=O)[C@H](Cc1ccc(OP(=O)(O)O)cc1)NC(=O)[C@H](CC(C)C)NC(=O)[C@@H]1CCCN1C(=O)[C@H](CCC(=O)O)NC(=O)[C@H](CC(N)=O)NC(=O)[C@@H](NC(=O)[C@H](Cc1ccc(O)cc1)NC(=O)[C@H](CCC(=O)O)NC(=O)[C@H](CC(=O)O)NC(=O)[C@@H](N)CCC(=O)O)C(C)C)C(=O)N[C@@H](CC(N)=O)C(=O)N[C@H](C(=O)N[C@@H](Cc1ccccc1)C(=O)N[C@@H](C)C(=O)N[C@@H](CC(N)=O)C(=O)N[C@H](C(=O)N[C@@H](CC(=O)O)C(=O)O)[C@@H](C)O)[C@@H](C)O` [ErbB4 1208 18-mer] (HELM PEPTIDE1{E.D.E.Y.V.N.E.P.L.[O=C([C@H](Cc1ccc(OP(=O)(O)O)cc1)N[*:1])[*:2]].L.N.T.F.A.N.T.D}$$$$V2.0): the dissociation constant (Kd) at SRC SH2 domain is 5.84 µM. This lies in the single-digit micromolar range.

Turning to “DNLYpYWDQDPPEd [ErbB2 pY1222, N-terminally rhodamine-labeled 13-mer phosphopeptide]”, at GRB7 SH2 domain, the “interaction with GRB7 on the PM platform” value is listed as “only displayed interactions with GRB7 from the PM platform”.

These data come from paper PMC3433420 (PLoS ONE, 2012).
